Test results reported in patent US12194021B2, “Modified herbal compositions for neuromodulation” (University of Southern California, priority 2021, dated 2025).
Marks after values point to notes of the source that are not given here.

Tests used:
GABAARs = assay: Whole-cell voltage-clamped recordings from hippocampal DGCs in slices (Itonic, mIPSCs); type: cell-based, rats; conditions: for GABAergic Itonic: basal Itonic 20 pA
Description: 2) Whole-Cell Patch-Clamp Recordings from Brain Slices. Transverse slices (400 lm) of dorsal hippocampus were obtained from wt and TG-SwDI mice (male, 20 months old) using a vibratome (VT 100; Technical Products International). Slices were perfused continuously with artificial CSF (ACSF) composed of the following (in mM): 125 NaCl, 2.5 KCl, 2 CaCl2, 2 MgCl2, 26 NaHCO3, and 10 D-glucose. The ACSF was bubbled continuously with 95% O2/5% CO2 to ensure adequate oxygenation of slices and a pH of 7.4 and kept at 34±0.5° C. for perfusion. TTX (0.5 μM), APV (40 μM), CNQX (10 μM), and CGP54626 (1 μM, GABABR antagonist) were added to ACSF to pharmacologically isolate GABAAR-mediated mIPSCs. Patch electrodes were filled with internal solution containing the following (in mM): 137 CsCl, 2 MgCl2, 1 CaCl2, 11 EGTA, 10 HEPES, and 3 ATP, pH adjusted to 7.30 with CsOH. Recordings targeted dentate gyms granule cells (DGCs) of hippocampal slices. Voltage-clamp whole-cell recording was performed using a patch clamp amplifier 3) EPM: All animals were tested anxiety levels on EPM. Animals were placed on the central area of the maze, tested for 5 min and video recorded. The following measures were scored: number of entries into open arms, closed arms, or center platform and time spent in each of these areas. Data were reported as % of number of entries in arms, % of time spent in different entries, and number of total entries.
To evaluate whether DHM-Piperidine Complex (D-P) can still potentiate GABAARs, whole-cell voltage-clamped recordings from hippocampal DGCs in slices were performed to test D-P and compared with DHM effects on GABAergic tonic current (Itonic) and miniature inhibitory postsynaptic currents (mIPSCs). […] Compared with DHM enhancing GABAergic Itonic from 20 pA (basal Itonic)→28 pA→31 pA→52 pA→55 pA, D-P enhancing GABAergic Itonic from 20 pA (basal Itonic)→35 pA→42 pA →65 pA→70 pA (Table 1).

gephyrin = conditions: previously reported (Liang et al., 2014); cited from earlier work
[1] = Anecdotal test of effects on sleep
Procedure: We did an Anecdotal Test of the Effects of DHM on Sleep. […] They were given combination-formula (Comb-D, 1 serving size), DHM (250 mg), or melatonin (10 mg). After a week, we started collecting their reported sleep duration.

mice = assay: Elevated plus maze (EPM), anxiolytic effect of combination form; type: in vivo; conditions: 45 min after oral administration, comb 0.5, 1, 2 serving size, diazepam 2 mg/kg
Procedure: Alternatively, the elevated plus maze for mice can consist of two opposing open (24×8 cm) and two enclosed arms (24×8×25 cm) connected by a central platform forming the shape of a plus sign. The dimensions of the central field which connects the open and closed arms are 8×8 cm. The plus maze was elevated to a height of 50 cm. Each mouse was immediately placed in the central square of the apparatus with the head facing one of the closed arms. Mice behavior during 5 min was observed and recorded by means of a video camera (Canon Digital, Japan), which was fixed to the wall above the elevated plus maze. In this test, the following parameters were detected and calculated: the number of entries (open arm entries and closed arm entries), % of open arm entries, and % of time spent in open arms.
Anxiolytic effect evaluation of combination form (comb). A characteristic of the anxiolytic effects of comb (0.5, 1, and 2 serving size) was evaluated by elevated plus maze (EPM) tests (Table 3; FIG. 6). The EPM is considered an etiologically valid assessment of anxiolytic/anxiety in rodents because it uses natural stimuli (fear of a novel, brightly lit open space, and fear of balancing on a relatively narrow, raised platform) to determine anxiety-like behavior in animals. Anxiolytics are known to exert their pharmacological action by causing an increase in GABAergic neurotransmission in the brain.
Statistical analysis: one-way ANOVA, followed by Holm-Sidak post hoc comparison. […] Data were expressed as the means ±SEM, (n=7/group) percentage of open arm entries or of time spent on open arms in mice given a 5-min test, 45 min after oral administration of comb (0.5, 1, 2 serving size), or vehicle.

O=C1c2c(O)cc(O)cc2O[C@H](c2cc(O)c(O)c(O)c2)[C@H]1O [DHM, dihydromyricetin, reference compound]
Itonic, percent in brackets (increase over basal) (GABAARs; 0.1 μM): (40%)*
mIPSCs (area potentiated) (GABAARs; 0.1 μM): 5.0%
GABAergic Itonic (GABAARs; 0.1 μM): 28 pA
Itonic, percent in brackets (increase over basal) (GABAARs; 0.3 μM): (55%)*
mIPSCs (area potentiated) (GABAARs; 0.3 μM): 13.3%*
GABAergic Itonic (GABAARs; 0.3 μM): 31 pA
Itonic, percent in brackets (increase over basal) (GABAARs; 1 μM): (160%)*
mIPSCs (area potentiated) (GABAARs; 1 μM): 58.3%*
GABAergic Itonic (GABAARs; 1 μM): 52 pA
Itonic, percent in brackets (increase over basal) (GABAARs; 10 μM): (175%)*
mIPSCs (area potentiated) (GABAARs; 10 μM): 53.3%*
GABAergic Itonic (GABAARs; 10 μM): 55 pA
GABAergic inhibitory transmission / gephyrin in TG mouse models (gephyrin): restores impaired GABAergic inhibitory transmission
sleep duration (average) ([1]; 250 mg oral daily): 5.5±0.65
start of improvement of sleep ([1]; 250 mg oral daily): 1 to 7 days
dependence after finishing three-month test [1]: without dependence

CN1C(=O)CN=C(c2ccccc2)c2cc(Cl)ccc21 [diazepam]
number of closed arm entries (mice): little effect
total number of arm entries (mice): significantly increased
percentage of open arm entries (mice; p<0.01): significantly elevated

COc1ccc2[nH]cc(CCNC(C)=O)c2c1 [melatonin]
complaints (discomfort) ([1]; 10 mg oral daily): dizziness on the second day, loss of energy, and other feelings of discomfort
time to show improvement in sleep ([1]; 10 mg oral daily): took a month
sleep duration (average) ([1]; 10 mg oral daily, in 40% attendees): 4.3 ± 0.9 h
dependence after finishing three-month test [1]: suffered withdrawal from the test
